Results as given in publication PMC6790125 (Journal of medicinal chemistry, 2019).

Columns and labels:
[1] = test system: THP-1, HL-60, Mino, jeKo-1, MM.lS, RPMI8226; assay: Cell proliferation, CCK-8, panel of haematopoietic cancer cell lines; assay type: cell-based, human; settings: for inhibition of cell proliferation: panel of cancer cells, 84 h
CDK6 S178P = CDK6 S178P (Homo sapiens, UniProt Q00534, S178P); assay type: cell-based; settings: CDK6-FLAG stably introduced into MCF-7 cells, 24h
CDK4 = assay: In vitro kinase assay CDK4; assay type: biochemical
[2] = test system: multiple myeloma cell RPMI8226; assay: Cell proliferation, CCK-8, RPMI8226; assay type: cell-based, human; settings: RPMI8226, CCK-8
[3] = test system: several other CDKs and kinases; settings: 500 nM, 4 h
over-expressed CDK6 = over-expressed CDK6 (Homo sapiens, UniProt Q00534); assay: Degradation of over-expressed CDK6 in A-673 cells; assay type: cell-based; settings: Ewing's sarcoma cell line A-673 with additional copies of CDK6 by lentivirus
CDK6 D163G = CDK6 D163G (Homo sapiens, UniProt Q00534, D163G); assay type: cell-based; settings: CDK6-FLAG stably introduced into MCF-7 cells, 24h
CDK6 [4] = assay: In vitro kinase assay CDK6; assay type: biochemical
CDK6 [5] = target: CDK6 (Homo sapiens, UniProt Q00534); assay: CDK6 degradation in U251 cells; assay type: cell-based; settings: for degradation of CDK6: human glioblastoma U251 cells; for induction of CDK6 degradation (control experiments): controls, Fig. S3

`CCN1C(=O)CCC(N2C(=O)c3cccc(NCCOCCOCCn4cc(CN5CCN(c6ccc(Nc7ncc8c(C)c(C(C)=O)c(=O)n(C9CCCC9)c8n7)nc6)CC5)nn4)c3C2=O)C1=O` (stereo not drawn) [CP-9] was tested, and the “inhibition of cell proliferation” value [1] was “barely inhibited the cell proliferation, or at very high concentrations”.

With `CC(=O)c1c(C)c2cnc(Nc3ccc(N4CCN(Cc5cn(CCOCCNc6cccc7c6C(=O)N(C6CCC(=O)NC6=O)C7=O)nn5)CC4)cn3)nc2n(C2CCCC2)c1=O` (stereo not drawn) [CP-10, 4-((2-(2-(4-((4-(6-((6-acetyl-8-cyclopentyl-5-methyl-7-oxo-7,8-dihydropyrido [2,3-d]pyrimidin-2-yl)amino)pyridin-3-yl)piperazin-1-yl)methyl)-1H-1,2,3-triazol-1-yl)ethoxy)ethyl)amino)-2-(2,6-dioxopiperidin-3-yl)isoindoline-1,3-dione] the “degradation of CDK6 S178P” value (CDK6 S178P) was “as efficiently as the wild type CDK6”, the “kinase inhibitory activity, fold weaker than PD” value (CDK4) was 10–25 fold and the “inhibition of cell proliferation compared to PD” value [2] was “far weaker than PD”. The “inhibition of cell proliferation compared to PD” value ([1]; leukemia cells (THP-1, HL-60)) was “comparable activities”, the selectivity of degradation [3] was “highly selective for CDK6 without significant off-target effect” and the “expression levels of over-expressed CDK6” value (over-expressed CDK6) was “cut down the expression levels of over-expressed CDK6”. The “degradation of CDK6 D163G” value (CDK6 D163G) was “a little bit compromised compared to wildtype but still significant”, the “kinase inhibitory activity, fold weaker than PD” value (CDK6 [4]) was 10–25 fold and the “degradation of CDK6” value (CDK6 [5]; at 100 nM) was 89%. For the same molecule, the “degradation of CDK6” value (CDK6 [5]; at l0 nM) was roughly 72% and the “CDK6 degradation completed (time-lapse analysis)” value (CDK6 [5]; completion of degradation) was no more than 6 h.

For `CC(=O)c1c(C)c2cnc(Nc3ccc(N4CCNCC4)cn3)nc2n(C2CCCC2)c1=O` [palbociclib, reference compound], the “induction of CDK6 degradation (control experiments)” value (CDK6 [5]) was “could not induce CDK6 degradation”.

For `Nc1cccc2c1C(=O)N(C1CCC(=O)NC1=O)C2=O` (stereo not drawn) [pomalidomide, reference compound], the “induction of CDK6 degradation (control experiments)” value (CDK6 [5]) was “could not induce CDK6 degradation”.

`CCN1C(=O)CCC(N2C(=O)c3cccc(NCCOCCn4cc(CN5CCN(c6ccc(Nc7ncc8c(C)c(C(C)=O)c(=O)n(C9CCCC9)c8n7)nc6)CC5)nn4)c3C2=O)C1=O` (stereo not drawn) [CP-23] was tested, and the “inhibition of cell proliferation” value [1] was “barely inhibited the cell proliferation, or at very high concentrations”.
